According to the supplement of paper PMC8612539:

System: Histophilus somni
Test: minimum inhibitory concentration (MIC)
Procedure: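 Broth microdilution MIC (Sensititre BOPO7F bovine plate, CLSI methods) of 19 antimicrobials against field isolates of P. multocida, M. haemolytica, H. somni (deep nasopharyngeal swabs) and E. coli, Enterococcus spp. (rectal swabs) from weaned dairy heifers. Incubation 16-24 h at 35 C. MIC is the lowest concentration preventing visible growth. Values with <= or > lie at the tested range limits. Trimethoprim-sulfamethoxazole is given as the trimethoprim component of a 1:19 mixture.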

CO/N=C(\C(=O)N[C@@H]1C(=O)N2C(C(=O)O)=C(CSC(=O)c3ccco3)CS[C@H]12)c1csc(N)n1 [Ceftiofur]
Settings	minimum inhibitory concentration [µg/mL]
isolate (source animal id): 3	≤ 0.25
isolate (source animal id): 4	≤ 0.25
isolate (source animal id): 7	≤ 0.25
isolate (source animal id): 14	≤ 0.25
isolate (source animal id): 15	≤ 0.25
isolate (source animal id): 17	≤ 0.25
isolate (source animal id): 18	≤ 0.25
isolate (source animal id): 20	≤ 0.25
isolate (source animal id): 23	≤ 0.25
isolate (source animal id): 45	≤ 0.25
isolate (source animal id): 53	≤ 0.25
isolate (source animal id): 83	≤ 0.25
isolate (source animal id): 88	≤ 0.25
isolate (source animal id): 92	≤ 0.25
isolate (source animal id): 93	≤ 0.25
isolate (source animal id): 99	≤ 0.25
isolate (source animal id): 100	≤ 0.25
isolate (source animal id): 105	≤ 0.25
isolate (source animal id): 107	≤ 0.25
isolate (source animal id): 108	≤ 0.25
isolate (source animal id): 109	≤ 0.25
isolate (source animal id): 110	≤ 0.25
isolate (source animal id): 117	≤ 0.25
isolate (source animal id): 121	≤ 0.25
isolate (source animal id): 123	≤ 0.25
isolate (source animal id): 124	≤ 0.25
isolate (source animal id): 127	≤ 0.25
isolate (source animal id): 128	≤ 0.25
isolate (source animal id): 130	≤ 0.25
isolate (source animal id): 132	≤ 0.25
isolate (source animal id): 135	≤ 0.25
isolate (source animal id): 140	≤ 0.25
isolate (source animal id): 141	≤ 0.25
isolate (source animal id): 142	≤ 0.25
isolate (source animal id): 144	≤ 0.25
isolate (source animal id): 146	≤ 0.25
isolate (source animal id): 147	≤ 0.25
isolate (source animal id): 151	≤ 0.25
isolate (source animal id): 153	≤ 0.25
isolate (source animal id): 154	≤ 0.25
isolate (source animal id): 156	≤ 0.25
isolate (source animal id): 157	≤ 0.25
isolate (source animal id): 176	≤ 0.25
isolate (source animal id): 183	≤ 0.25
isolate (source animal id): 186	≤ 0.25
isolate (source animal id): 196	≤ 0.25
isolate (source animal id): 198	≤ 0.25
isolate (source animal id): 200	≤ 0.25
isolate (source animal id): 206	≤ 0.25
isolate (source animal id): 208	≤ 0.25
isolate (source animal id): 210	≤ 0.25
isolate (source animal id): 212	≤ 0.25
isolate (source animal id): 215	≤ 0.25
isolate (source animal id): 216	≤ 0.25
isolate (source animal id): 218	≤ 0.25
isolate (source animal id): 219	≤ 0.25
isolate (source animal id): 224	≤ 0.25
isolate (source animal id): 228	≤ 0.25
isolate (source animal id): 230	≤ 0.25
isolate (source animal id): 233	≤ 0.25
isolate (source animal id): 238	≤ 0.25
isolate (source animal id): 239	≤ 0.25
isolate (source animal id): 241	≤ 0.25
isolate (source animal id): 242	≤ 0.25
isolate (source animal id): 243	≤ 0.25
isolate (source animal id): 245	≤ 0.25
isolate (source animal id): 246	≤ 0.25
isolate (source animal id): 247	≤ 0.25
isolate (source animal id): 248	≤ 0.25
isolate (source animal id): 250	≤ 0.25
isolate (source animal id): 251	≤ 0.25
isolate (source animal id): 252	≤ 0.25
isolate (source animal id): 254	≤ 0.25
isolate (source animal id): 258	≤ 0.25
isolate (source animal id): 259	≤ 0.25
isolate (source animal id): 262	≤ 0.25
isolate (source animal id): 264	≤ 0.25
isolate (source animal id): 265	≤ 0.25
isolate (source animal id): 266	≤ 0.25
isolate (source animal id): 267	≤ 0.25
isolate (source animal id): 269	≤ 0.25
isolate (source animal id): 271	≤ 0.25
isolate (source animal id): 272	≤ 0.25
isolate (source animal id): 274	≤ 0.25
isolate (source animal id): 276	≤ 0.25
isolate (source animal id): 278	≤ 0.25
isolate (source animal id): 280	≤ 0.25
isolate (source animal id): 281	≤ 0.25
isolate (source animal id): 283	≤ 0.25
isolate (source animal id): 288	≤ 0.25
isolate (source animal id): 291	≤ 0.25
isolate (source animal id): 292	≤ 0.25
isolate (source animal id): 296	≤ 0.25
isolate (source animal id): 306	≤ 0.25
isolate (source animal id): 336	≤ 0.25
isolate (source animal id): 337	≤ 0.25
isolate (source animal id): 341	≤ 0.25

CN1C[C@@H]2C[C@H]1CN2c1cc2c(cc1F)c(=O)c(C(=O)O)cn2C1CC1 [Danofloxacin]
Settings	minimum inhibitory concentration [µg/mL]
isolate (source animal id): 3	≤ 0.12
isolate (source animal id): 4	≤ 0.12
isolate (source animal id): 7	≤ 0.12
isolate (source animal id): 14	≤ 0.12
isolate (source animal id): 15	≤ 0.12
isolate (source animal id): 17	≤ 0.12
isolate (source animal id): 18	≤ 0.12
isolate (source animal id): 20	≤ 0.12
isolate (source animal id): 23	≤ 0.12
isolate (source animal id): 45	≤ 0.12
isolate (source animal id): 53	≤ 0.12
isolate (source animal id): 83	≤ 0.12
isolate (source animal id): 88	≤ 0.12
isolate (source animal id): 92	≤ 0.12
isolate (source animal id): 93	≤ 0.12
isolate (source animal id): 99	≤ 0.12
isolate (source animal id): 100	≤ 0.12
isolate (source animal id): 105	≤ 0.12
isolate (source animal id): 107	≤ 0.12
isolate (source animal id): 108	≤ 0.12
isolate (source animal id): 109	≤ 0.12
isolate (source animal id): 110	≤ 0.12
isolate (source animal id): 117	≤ 0.12
isolate (source animal id): 121	≤ 0.12
isolate (source animal id): 123	≤ 0.12
isolate (source animal id): 124	≤ 0.12
isolate (source animal id): 127	≤ 0.12
isolate (source animal id): 128	≤ 0.12
isolate (source animal id): 130	≤ 0.12
isolate (source animal id): 132	≤ 0.12
isolate (source animal id): 135	≤ 0.12
isolate (source animal id): 140	≤ 0.12
isolate (source animal id): 141	≤ 0.12
isolate (source animal id): 142	≤ 0.12
isolate (source animal id): 144	≤ 0.12
isolate (source animal id): 146	≤ 0.12
isolate (source animal id): 147	≤ 0.12
isolate (source animal id): 151	≤ 0.12
isolate (source animal id): 153	≤ 0.12
isolate (source animal id): 154	≤ 0.12
isolate (source animal id): 156	≤ 0.12
isolate (source animal id): 157	≤ 0.12
isolate (source animal id): 176	≤ 0.12
isolate (source animal id): 183	≤ 0.12
isolate (source animal id): 186	≤ 0.12
isolate (source animal id): 196	≤ 0.12
isolate (source animal id): 198	≤ 0.12
isolate (source animal id): 200	≤ 0.12
isolate (source animal id): 206	≤ 0.12
isolate (source animal id): 208	≤ 0.12
isolate (source animal id): 210	≤ 0.12
isolate (source animal id): 212	≤ 0.12
isolate (source animal id): 215	≤ 0.12
isolate (source animal id): 216	≤ 0.12
isolate (source animal id): 218	≤ 0.12
isolate (source animal id): 219	≤ 0.12
isolate (source animal id): 224	≤ 0.12
isolate (source animal id): 228	≤ 0.12
isolate (source animal id): 230	≤ 0.12
isolate (source animal id): 233	≤ 0.12
isolate (source animal id): 238	≤ 0.12
isolate (source animal id): 239	≤ 0.12
isolate (source animal id): 241	≤ 0.12
isolate (source animal id): 242	≤ 0.12
isolate (source animal id): 243	≤ 0.12
isolate (source animal id): 245	≤ 0.12
isolate (source animal id): 246	≤ 0.12
isolate (source animal id): 247	≤ 0.12
isolate (source animal id): 248	≤ 0.12
isolate (source animal id): 250	≤ 0.12
isolate (source animal id): 251	≤ 0.12
isolate (source animal id): 252	≤ 0.12
isolate (source animal id): 254	≤ 0.12
isolate (source animal id): 258	≤ 0.12
isolate (source animal id): 259	≤ 0.12
isolate (source animal id): 262	≤ 0.12
isolate (source animal id): 264	≤ 0.12
isolate (source animal id): 265	≤ 0.12
isolate (source animal id): 266	≤ 0.12
isolate (source animal id): 267	≤ 0.12
isolate (source animal id): 269	≤ 0.12
isolate (source animal id): 271	≤ 0.12
isolate (source animal id): 272	≤ 0.12
isolate (source animal id): 274	≤ 0.12
isolate (source animal id): 276	≤ 0.12
isolate (source animal id): 278	≤ 0.12
isolate (source animal id): 280	≤ 0.12
isolate (source animal id): 281	≤ 0.12
isolate (source animal id): 283	≤ 0.12
isolate (source animal id): 288	≤ 0.12
isolate (source animal id): 291	≤ 0.12
isolate (source animal id): 292	≤ 0.12
isolate (source animal id): 296	≤ 0.12
isolate (source animal id): 306	≤ 0.12
isolate (source animal id): 336	≤ 0.12
isolate (source animal id): 337	≤ 0.12
isolate (source animal id): 341	≤ 0.12
